# According to patent EP2508526A1, “Spiroalkene carboxamide derivatives and their use as chemokine receptor modulators” (Ares Trading SA, priority 2011, dated 2012):
# Where a name gives a salt, the structure may show the parent alone.
# Biological target: T1, hCCR2b (Homo sapiens, UniProt P41597)
# T1 sequence (P41597 1-360 isoform P41597-2): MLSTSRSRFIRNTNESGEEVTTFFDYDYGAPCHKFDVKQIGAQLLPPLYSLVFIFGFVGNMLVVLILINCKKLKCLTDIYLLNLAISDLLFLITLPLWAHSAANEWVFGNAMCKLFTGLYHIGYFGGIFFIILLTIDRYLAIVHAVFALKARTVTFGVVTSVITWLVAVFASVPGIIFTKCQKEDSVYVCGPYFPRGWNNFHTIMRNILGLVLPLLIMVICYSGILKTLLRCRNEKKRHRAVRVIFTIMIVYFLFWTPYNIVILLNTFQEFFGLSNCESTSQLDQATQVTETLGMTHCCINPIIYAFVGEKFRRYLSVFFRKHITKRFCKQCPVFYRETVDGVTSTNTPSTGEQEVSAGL
# Assay: CCR2 binding assay ([125I]MCP-1, SPA, CHO cell membranes)
# Design: expressed in transfected cells; host or cells: CHO cells (membrane preparation)
# Conditions: membranes from CHO cells expressing hCCR2b, 50 pM [125I]MCP-1; read-out: Binding hCCR2 (Ki)
# Description: Membranes were prepared from CHO cells expressing mCCR2b or hCCR2b for use in ligand binding studies. Cells were suspended in 50mM Tris-HCL, pH 7.4, 2 mM EDTA, 250 mM Sucrose and 1x Complete EDTA-free protease inhibitor cocktail (Roche) (Buffer A), and disrupted at 4°C by N2 decompression using a cell disruption bomb (Parr Instrument). Following centrifugation at 200 RCF for 10 min at 4°C, the supernatant was suspended in buffer A and centrifuged again at 19000 RPM (RCSC rotor SS34 code 05 Sorvall Instruments DUPONT) for 90 min at 4°C. The pellet was then suspended in 10 mM HEPES, pH 7.4, 1 mM EDTA, 250 mM Sucrose, and 1x Complete EDTA-free protease inhibitor cocktail (Buffer B) and homogenized using a potter. Membranes were flash frozen in liquid N2 and stored at -80°C. [125I] Monocyte Chemoattractant Protein -1 (MCP-1) (25µCi; Perkin Elmer) was added to test compounds in DMSO (1% final). Membranes and WGA SPA beads (GE Healthcare) were added to give a final volume of 100 µl in 96-well plates with assay concentrations of 50 pM or 100 pM [125I]Monocyte Chemoattractant Protein -1 (respectively for hCCR2b or mCCR2b), 50 mM HEPES, pH 7.4, 5 mM MgCl2, 1 mM CaCl2, 0.1% BSA, 1-5 µg/well of membranes and 100 µg/well of WGA SPA beads. Binding was performed for 90 min at RT with strong agitation of speed 5 (Heidolph Titramax 100 SCITEC) and bound radioactivity was measured on a PerkinElmer 1450 MicroBeta counter. Specific binding was calculated by subtracting remaining radioactivity in the presence of 1000-fold excess of unlabeled compound. Binding data were analyzed using the Genedata Screener® software.
row,Structure (SMILES),Ki [nM]
1,"COc1ccccc1CCN1CCC2(CC1)OC(=O)C(C)=C2C(=O)N1CCN(c2cccc(C(F)(F)F)c2)CC1 [Compound 63, 8-[2-(2-methoxyphenyl)ethyl]-3-methyl-4-({4-[3-(trifluoromethyl)phenyl]piperazin-1-yl}carbonyl)-1-oxa-8-azaspiro[4.5]dec-3-en-2-one]",< 50
2,"CCN1CCC2(CC1)OC(=O)C(C)=C2C(=O)N1CCC(c2cccc(C(F)(F)F)c2)CC1 [Compound 94, 8-ethyl-3-methyl-4-({4-[3-(trifluoromethyl)phenyl]piperidin-1-yl}carbonyl)-1-oxa-8-azaspiro[4.5]dec-3-en-2-one]",100 to 500
3,"COc1cccc(CCN2CCC3(CC2)OC(=O)C(C)=C3C(=O)N2CCN(c3cccc(C(F)(F)F)c3)CC2)c1 [Compound 8, 8-[2-(3-methoxyphenyl)ethyl]-3-methyl-4-({4-[3-(trifluoromethyl)pheny)]piperazin-1-yl}carbonyl)-1-oxa-8-azaspiro[4.5]dec-3-en-2-one, dihydrochloride salt]",< 50
4,"CC1=C(C(=O)N2CCc3ccc(C(F)(F)F)cc3C2)C2(CCN(C3CCCC3)CC2)OC1=O [Compound 30, 8-cyclopentyl-3-methyl-4-{[7-(trifluoromethyl)-3,4-dihydroisoquinolin-2(1H)-yl]carbonyl}-1-oxa-8-azaspiro[4.5]dec-3-en-2-one]",< 50
5,"CC1=C(C(=O)N2CCN(c3cccc(C(F)(F)F)c3)CC2)C2(CCN(Cc3cc4ccccc4[nH]3)CC2)OC1=O [Compound 107, 8-(1H-indol-2-ylmethyl)-3-methyl-4-({4-[3-(trifluoromethyl)phenyl]piperazin-1-yl}carbonyl)-1-oxa-8-azaspiro[4.5]dec-3-en-2-one]",500 to 2000
6,"CC1=C(C(=O)N2CCN(c3cccc(C(F)(F)F)c3)CC2)C2(CCN(CCc3ccc(F)cc3)CC2)OC1=O [Example 3, 8-[2-(4-fluorophenyl)ethyl]-3-methyl-4-({4-[3-(trifluoromethyl)phenyl]piperazin-1-yl}carbonyl)-1-oxa-8-azaspiro[4.5]dec-3-en-2-one]",< 50
7,"CC1=C(C(=O)N2CCc3ccc(C(F)(F)F)cc3C2)C2(CCN(C3CCOC(C)(C)C3)CC2)OC1=O (stereo not drawn) [Compound 35, 8-(2,2-dimethyltetrahydro-2H-pyran-4-yl)-3-methyl-4-{[7-(trifluoromethyl)-3,4-dihydroisoquinolin-2(1H)-yl]carbonyl}-1-oxa-8-azaspiro[4.5]dec-3-en-2-one]",< 50
8,"CCN1CCC2(CC1)OC(=O)C(C)=C2C(=O)N1CCc2cc(C(F)(F)F)ccc2C1 [Compound 54, 8-ethyl-3-methyl-4-{[6-(trifluoromethyl)-3,4-dihydroisoquinolin-2 (1H)-yl]carbonyl}-1-oxa-8-azaspiro[4.5]dec-3-en-2-one]",< 50
9,"COC1COCCC1N1CCC2(CC1)OC(=O)C(C)=C2C(=O)N1CCc2ccc(C(F)(F)F)cc2C1 (single isomer, unassigned; (+)) [Compound 41, (+)-1,5-anhydro-3,4-dideoxy-2-O-methyl-3-(3-methyl-2-oxo-4-{[7-(trifluoromethyl)-3,4-dihydroisoquinolin-2(1H)-yl]carbonyl}-1-oxa-8-azaspiro[4.5]dec-3-en-8-yl)-pentitol]",< 50
10,"CC1=C(C(=O)N2CCc3ccc(C(F)(F)F)cc3C2)C2(CCN(C3CCCS(=O)(=O)C3)CC2)OC1=O (stereo not drawn) [Compound 39, 8-(1,1-dioxidotetrahydro-2H-thiopyran-3-yl)-3-methyl-4-{[7-(trifluoromethyl)-3,4-dihydroisoquinolin-2(1H)-yl]carbonyl}-1-oxa-8-azaspiro[4.5]dec-3-en-2-one]",50 to 100
11,"CC1=C(C(=O)N2CCN(c3cccc(C(F)(F)F)c3)CC2)C2(CCN(C(C)Cc3ccccc3)CC2)OC1=O (stereo not drawn) [Compound 104, 3-methyl-8-(1-methyl-2-phenylethyl)-4-({4-[3-(trifluoromethyl)phenyl]piperazin-1-yl}carbonyl)-1-oxa-8-azaspiro[4.5]dec-3-en-2-one]",< 50
12,"CCN1CCC2(CC1)OC(=O)C(C)=C2C(=O)NCCc1cccc(C(F)(F)F)c1 [Compound 99, 8-ethyl-3-methyl-2-oxo-N-{2-[3-(trifluoromethyl)phenyl]ethyl}-1-oxa-8-azaspiro[4.5]dec-3-ene-4-carboxamide]",500 to 2000
13,"CCN1CCCC2(CC1)OC(=O)C(C)=C2C(=O)N1CCc2ccc(C(F)(F)F)cc2C1 (stereo not drawn) [Compound 120, 8-ethyl-3-methyl-4-{[7-(trifluoromethyl)-3,4-dihydroisoquinolin-2(1H)-yl]carbonyl}-1-oxa-8-azaspiro[4.6]undec-3-en-2-one]",< 50
14,"COC1COCCC1N1CCC2(CC1)OC(=O)C(C)=C2C(=O)N1CCc2ccc(C(F)(F)F)cc2C1 (single isomer, unassigned; (-)) [Compound 40, (-)-1,5-anhydro-2,3-dideoxy-4-O-methyl-3-(3-methyl-2-oxo-4-{[7-(trifluoromethyl)-3,4-dihydroisoquinolin-2(1H)-yl]carbonyl}-1-oxa-8-azaspiro[4.5]dec-3-en-8-yl) -pentitol]",< 50
15,"CC1=C(C(=O)N2CCN(c3cccc(C(F)(F)F)c3)CC2)C2(CCN(CC(=O)c3ccccc3)CC2)OC1=O [Compound 108, 3-methyl-8-(2-oxo-2-phenylethyl)-4-({4-[3-(trifluoromethyl)phenyl]piperazin-1-yl}carbonyl)-1-oxa-8-azaspiro[4.5]dec-3-en-2-one]",100 to 500
16,"CC1=C(C(=O)N2CCc3ncc(C(F)(F)F)cc3C2)C2(CCN(CCF)CC2)OC1=O [Compound 116, 8-(2-fluoroethyl)-3-methyl-4-{[3-(trifluoromethyl)-7,8-dihydro-1,6-naphthyridin-6(5H)-yl]carbonyl}-1-oxa-8-azaspiro[4.5]dec-3-en-2-one]",< 50
17,"CCN1CCC2(CC1)OC(=O)C(C)=C2C(=O)N1CCN(c2cc(Cl)cc(Cl)c2)CC1 [Compound 114, 4-{[4-(3,5-dichlorophenyl)piperazin-1-yl]carbonyl}-8-ethyl-3-methyl-1-oxa-8-azaspiro[4.5]dec-3-en-2-one]",100 to 500
18,"CCN1CCC2(CC1C)OC(=O)C(C)=C2C(=O)N1CCc2ccc(C(F)(F)F)cc2C1 (stereo not drawn) [Compound 79, 8-ethyl-3,7-dimethyl-4-{[7-(trifluoromethyl)-3,4-dihydroisoquinolin-2(1H)-yl]carbonyl}-1-oxa-8-azaspiro[4.5]dec-3-en-2-one]",< 50
19,"CC1=C(C(=O)N2CCN(c3cccc(C(F)(F)F)c3)CC2)C2(CCN(Cc3ccccc3)CC2)OC1=O [Compound 109, 8-benzyl-3-methyl-4-({4-[3-(trifluoromethyl)phenyl]piperazin-1-yl}carbonyl)-1-oxa-8-azaspiro[4.5]dec-3-en-2-one]",100 to 500
20,"CC1=C(C(=O)N2CCc3ccc(C(F)(F)F)cc3C2)C2(CCN(CC3CCOC3)CC2)OC1=O (stereo not drawn) [Compound 33, 3-methyl-8-(tetrahydrofuran-3-ylmethyl)-4-{[7-(trifluoromethyl)-3,4-dihydroisoquinolin-2(1H)-yl]carbonyl}-1-oxa-8-azaspiro[4.5]dec-3-en-2-one]",< 50
21,"CC1=C(C(=O)N2CCN(c3cccc(Cl)c3)CC2)C2(CCN(C)CC2)OC1=O [Compound 112, 4-{[4-(3-chlorophenyl)piperazin-1-yl]carbonyl}-3,8-dimethyl-1-oxa-8-azaspiro[4.5]dec-3-en-2-one]",500 to 2000
